The values that follow are results of earlier work, collected in patent publication US20220265684A1, “COMPOSITIONS AND METHODS FOR TREATING ULCERATIVE COLITIS” (9 METERS BIOPHARMA, INC., priority 2021, published 2022).

For this series the following is noted: after administration of 100 mg (1 tablet); Actarit PI.

Turning to `Nc1ccc(CC(=O)O)cc1` [4-APAA, 4-aminophenylacetic acid], the “AUC0-∞” value is 4560 ng·h/mL and the Cmax (usually the maximum level reached in the sampled fluid or tissue) was 2240 ng/mL.
